Molecular target: T1, MAGE-A11:PCF11 interaction (GST-MAGE-A11 and FAM-PCF11_4) (Homo sapiens, UniProt P43364)
T1 construct: GST-MAGE-A11 MHD (human MAGE-A11 MHD amino acid 218-429); made in house; host or cells: E. coli BL21(DE3)
T1 sequence (P43364 218-429): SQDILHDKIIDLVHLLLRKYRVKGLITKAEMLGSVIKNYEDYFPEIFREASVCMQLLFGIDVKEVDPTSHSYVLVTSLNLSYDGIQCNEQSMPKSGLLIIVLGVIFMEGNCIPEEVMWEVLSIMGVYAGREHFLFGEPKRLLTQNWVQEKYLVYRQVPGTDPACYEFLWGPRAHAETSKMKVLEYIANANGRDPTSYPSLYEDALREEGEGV
Experiment: TR-FRET primary / single point screen at 15 µM
Format: binding
In short: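 Single-point screen at 15 µM final compound in 50 mM Tris pH 7.5, 20 mM MgCl2, 0.1 mg/ml BSA, 1 mM DTT, with 200 nM FAM-PCF11_4, 5 nM Tb-anti-GST and 5 nM GST-MAGE-A11. After 90 min at room temperature, the 520/490 nm TR-FRET ratio (340 nm excitation) gave %Inhibition against no-MAGE-A11 and DMSO controls.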

[1] = single point TR-FRET screening of 797 quinoline compounds against MAGE-A11:PCF11
[2] = single point TR-FRET screening of quinoline compounds against MAGE-A11:PCF11, 15 µM

Structure (SMILES)	percent inhibition (TR-FRET) [1]	percent inhibition (TR-FRET) [2]
Fc1ccc(CN(CCCCNc2ccnc3cc(Cl)ccc23)Cc2ccccc2)cc1F [SJ000361197]	26.0931	–
Fc1ccccc1CN(CCCCNc1ccnc2cc(Cl)ccc12)Cc1ccccc1 [SJ000361198]	20.7772	–
Fc1cccc(CN(CCCCNc2ccnc3cc(Cl)ccc23)Cc2ccccc2)c1 [SJ000361199]	28.3389	–
O=[N+]([O-])c1ccccc1CN(CCCCNc1ccnc2cc(Cl)ccc12)Cc1ccccc1 [SJ000361200]	17.2064	–
O=[N+]([O-])c1cccc(CN(CCCCNc2ccnc3cc(Cl)ccc23)Cc2ccccc2)c1 [SJ000361201]	24.3707	–
O=[N+]([O-])c1ccc(CN(CCCCNc2ccnc3cc(Cl)ccc23)Cc2ccccc2)cc1 [SJ000361202]	15.2459	–
O=C(O)c1ccccc1CN(CCCCNc1ccnc2cc(Cl)ccc12)Cc1ccccc1 [SJ000361203]	4.099	–
Clc1ccc2c(NCCCCN(Cc3ccccc3)Cc3cccc4ccccc34)ccnc2c1 [SJ000361204]	26.4906	–
Clc1ccc2c(NCCCCN(Cc3ccccc3)Cc3ccc4ccccc4c3)ccnc2c1 [SJ000361205]	24.6356	–
Cc1cccc(CN(CCCCNc2ccnc3cc(Cl)ccc23)Cc2ccccc2)c1 [SJ000361206]	29.5379	–
Clc1ccc(CN(CCCCNc2ccnc3cc(Cl)ccc23)Cc2ccccc2)c(Cl)c1 [SJ000361207]	35.4339	–
CCC(C)CN(CCCCNc1ccnc2cc(Cl)ccc12)Cc1ccccc1 (centres unmarked) [SJ000361208]	35.3677	–
Cc1ccc(C)c(CN(CCCCNc2ccnc3cc(Cl)ccc23)Cc2ccccc2)c1 [SJ000361209]	32.6515	–
COc1cccc(CN(CCCCNc2ccnc3cc(Cl)ccc23)Cc2ccccc2)c1 [SJ000361210]	11.7175	–
Clc1ccc2c(NCCCCN(CCc3ccccc3)Cc3ccccc3)ccnc2c1 [SJ000361211]	23.3769	–
CCCCCCN(CCCCNc1ccnc2cc(Cl)ccc12)Cc1ccccc1 [SJ000361212]	23.5778	–
CCCN(CCC)CCCNc1ccnc2cc(C(F)(F)F)ccc12 [SJ000361250]	–	15.6779
CCCN(CCCNc1ccnc2cc(C(F)(F)F)ccc12)Cc1ccncc1 [SJ000361251]	–	17.4864
CCCN(CCCNc1ccnc2cc(C(F)(F)F)ccc12)Cc1ccccn1 [SJ000361252]	–	15.1623

Structure (SMILES)	percent inhibition (TR-FRET) [1]	percent inhibition (TR-FRET) [2]
CCCN(CCCNc1ccnc2cc(C(F)(F)F)ccc12)Cc1cccs1 [SJ000361253]	–	19.5346
CCCN(CCCNc1ccnc2cc(C(F)(F)F)ccc12)Cc1ccsc1 [SJ000361254]	–	28.8755
CCCN(CCCNc1ccnc2cc(C(F)(F)F)ccc12)Cc1ccc[nH]1 [SJ000361255]	–	30.6641
CCCN(CCCNc1ccnc2cc(C(F)(F)F)ccc12)Cc1ccccc1 [SJ000361256]	–	28.8195
CCCN(CCCNc1ccnc2cc(C(F)(F)F)ccc12)Cc1ccccc1O [SJ000361257]	–	26.5044
CCCN(CCCNc1ccnc2cc(C(F)(F)F)ccc12)Cc1ccc(C)s1 [SJ000361258]	–	19.0825
CCCN(CCCNc1ccnc2cc(C(F)(F)F)ccc12)Cc1ccccc1C(F)(F)F [SJ000361259]	–	4.988
CCCN(CCCNc1ccnc2cc(C(F)(F)F)ccc12)Cc1cccc(OC)c1O [SJ000361260]	–	15.4935
CCCN(CCCNc1ccnc2cc(C(F)(F)F)ccc12)Cc1ccc(C)o1 [SJ000361261]	–	23.9069
CCCN(CCCNc1ccnc2cc(C(F)(F)F)ccc12)Cc1c(F)cccc1OC [SJ000361262]	–	29.228
CCCN(CCCNc1ccnc2cc(C(F)(F)F)ccc12)Cc1cc(OC)ccc1O [SJ000361263]	–	25.2582
CCCN(CCCNc1ccnc2cc(C(F)(F)F)ccc12)Cc1c(C)cc(C)cc1C [SJ000361264]	–	19.9321
CCCN(CCCNc1ccnc2cc(C(F)(F)F)ccc12)Cc1ccco1 [SJ000361265]	–	24.1057
CCCN(CCCNc1ccnc2cc(C(F)(F)F)ccc12)CC1CC1 [SJ000361266]	–	48.1534
CCCN(CCCNc1ccnc2cc(C(F)(F)F)ccc12)Cc1ccoc1 [SJ000361267]	–	28.5489
CCCN(CCCNc1ccnc2cc(C(F)(F)F)ccc12)CC1CCCCC1 [SJ000361268]	–	33.314
CCCN(CCCNc1ccnc2cc(C(F)(F)F)ccc12)CC(CC)CC [SJ000361269]	–	30.6641
CCCN(CCCNc1ccnc2cc(C(F)(F)F)ccc12)Cc1ccc2c(c1)OCO2 [SJ000361270]	–	5.623
CCCCCN(CCC)CCCNc1ccnc2cc(C(F)(F)F)ccc12 [SJ000361271]	–	30.9303

Structure (SMILES)	percent inhibition (TR-FRET) [1]	percent inhibition (TR-FRET) [2]
CCCN(CCCNc1ccnc2cc(C(F)(F)F)ccc12)Cc1ccc(F)c(F)c1 [SJ000361272]	–	13.8395
CCCN(CCCNc1ccnc2cc(C(F)(F)F)ccc12)Cc1ccc(OC)cc1 [SJ000361273]	–	22.8956
CCCN(CCCNc1ccnc2cc(C(F)(F)F)ccc12)Cc1ccccc1F [SJ000361274]	–	19.2187
CCCCCN(CCCCC)CC(=O)Nc1c2c(nc3ccccc13)CCC2 [SJ000487033]	-68.0728	–
COC(=O)CN1CCN(c2cc(C)nc3ccccc23)C(C)C1=O (centres unmarked) [SJ000516812]	3.503	–
Clc1ccc2c(N3CCN(CCCN4CCN(c5ccnc6cc(Cl)ccc56)CC4)CC3)ccnc2c1 [SJ000518980]	-2.9894	–
Cc1[nH]cnc1CN(CCCCNc1ccnc2cc(Cl)ccc12)Cc1ccccc1 [SJ000520428]	15.1059	–
COC(=O)CCCCCN(CCCNc1ccnc2cc(Cl)ccc12)Cc1ccccc1 [SJ000520429]	–	17.1364
Clc1ccc2c(NCCCN(Cc3ccccc3)Cc3ccc4[nH]ccc4c3)ccnc2c1 [SJ000520430]	–	66.4274
Cn1ccnc1CN(CCCNc1ccnc2cc(Cl)ccc12)Cc1ccccc1 [SJ000520431]	–	15.361
COC(=O)CCCCCN(CCCCNc1ccnc2cc(Cl)ccc12)Cc1ccccc1 [SJ000520432]	23.5757	–
Clc1ccc2c(NCCCN(Cc3ccccc3)Cc3c[nH]c4ccccc34)ccnc2c1 [SJ000520433]	–	40.1907
Clc1ccc2c(NCCCCN(Cc3ccccc3)Cc3ccc4[nH]ccc4c3)ccnc2c1 [SJ000520434]	69.4381	–
Cn1ccnc1CN(CCCCNc1ccnc2cc(Cl)ccc12)Cc1ccccc1 [SJ000520435]	5.888	–
Clc1ccc2c(NCCCCN(Cc3ccccc3)Cc3cccc4c3OCO4)ccnc2c1 [SJ000520436]	21.6545	–
COc1ccc(CN(CCCNc2ccnc3cc(Cl)ccc23)Cc2ccccc2)cc1F [SJ000520437]	–	23.6478
COc1ccc(CN(CCCCNc2ccnc3cc(Cl)ccc23)Cc2ccccc2)cc1F [SJ000520438]	13.1455	–
Cn1cc(CN(CCCNc2ccnc3cc(Cl)ccc23)Cc2ccccc2)c2ccccc21 [SJ000520439]	–	-9.311

— publication PMC7529893, “Structural basis for substrate recognition and chemical inhibition of oncogenic MAGE ubiquitin ligases” (Nature Communications, 2020)
